Results taken from US20170015555A1, “LONG-TERM PRESERVATION AND NOVEL APPLICATION OF CHLOROUS ACID AQUEOUS SOLUTION FORMULATION” (priority 2013, published 2017).

Assays:
[1] = test system: E. coli: Escherichia coli IF03927; test: Permeability of pathogenic microbes when treatment sheets were laid on vomit; type: cell-based; design: unit not given here; settings: 1000 ppm available chlorine
Description: (§1) 1) Chlorous acid aqueous solution formulation (see Example 1: Table 11) Treatment sheet (material: 100% cotton): (about 27×40 cm) *Impregnated at a ratio of weight of treatment sheet (g): amount of liquid (ml)=1:3 2) Imitation vomit (hereinafter, referred to as vomit) Miso solution: adjusted to pH 2 with hydrochloric acid 3) Test Microbes that were used E. coli: Escherichia coli IF03927 Staphylococcus aureus: Staphylococcus aureus IF0 12732 Thermoduric Microbes (Bacillus cereus): Bacillus cereus NBRC15305 Microbes of the genus Salmonella: Salmonella Enteritidis IF03313 Enterohemorrhagic Escherichia coli 0157: Escherichia coli 0157 Enterohemorrhagic Escherichia coli 0111: Escherichia coli 0111 Enterohemorrhagic Escherichia coli 026: Escherichia coli O26
(§2) Permeability of pathogenic microbes into a treatment sheet when treating vomit was examined to compare effects of preventing secondary contamination. (1) Imitation vomit is spread in an area about the size of an A4 sheet. (2) 30 agent solution-containing treatment sheets were laid thereon and left standing for 10 minutes. (3) Treatment sheets were removed one at a time from the top. After diluting with saline, the sample was spread in a petri dish and cultured.

[2] = test system: Staphylococcus aureus IF0 12732; test: as above; type: cell-based; design: unit not given here; settings: 1000 ppm available chlorine
Description: as §1, §2

[3] = Deodorizing effect (chemical deodorization, gas detector tube); settings: spray 20 cc
Description: In order to evaluate tests on deodorizing effects, the present Example examined deodorizing effects by using standards regarding air freshening and deodorization ([II]-2 Method of Testing Deodorizing Efficacy (Chemical Deodorization)) set forth by the Air Fresheners and Deodorizers Conference (http://www.houkou.gr.jp/) as the efficacy testing method, which is adopted by Japan Food Research Laboratories.
Ammonium odor: Ammonium Standard Solution II (Wako Pure Chemical Industries, for testing malodorous substances) Amine odor: methyl mercaptan standard solution (Wako Pure Chemical Industries, for testing malodorous substances) Sulfur odor: hydrogen sulfide (self-made, used hydrogen sulfide that was generated by adding sulfuric acid to zinc sulfide)
Gas detector tube made by GASTEC Corporation Ammonium odor: Detector tube ammonium 3 L made by GASTEC Corporation Amino odor: Detector tube methyl mercaptan 71 made by GASTEC Corporation Sulfur odor: Detector tube hydrogen sulfide 4 LL made by GASTEC Corporation
Tests were conducted in compliance with ([II]-2 Method of Testing Deodorizing Efficacy (Chemical Deodorization)) set forth by the Air Fresheners and Deodorizers Conference.
The tests were carried out by static culture method, using a commercially-available airbag with a spigot having a volume of about 10 L as test containers. The volume of airbags was appropriately changed in accordance with the size of the product.
The bags were filled with odorless air. Malodor concentrations were measured over time at room temperature (about 20° C.). (3 points or higher, detection tube method (FIG. 16), measured by an instrument analysis method or olfactory measurement method. When decrease in the blank was observed, the decrease was suitably corrected. When measuring by olfactory measuring method, the airbag spigot was opened for direct sniffing, or gas was transferred to an odor bag while wearing a mask to perform olfactory measurement in an autonomic respiration form. Measured air was not returned to the source).

## OCl [Sodium Hypochlorite, sodium hypochlorite]
[1]; 1 sheet, Day 0 at 25° C.
  microbes in treatment sheet laid on imitation vomit: <10
[1]; 1 sheet, Day 7 at 25° C.
  microbes in treatment sheet laid on imitation vomit: >10^6
[1]; 2 sheets, Day 0 at 25° C.
  microbes in treatment sheet laid on imitation vomit: <10
[1]; 2 sheets, Day 7 at 25° C.
  microbes in treatment sheet laid on imitation vomit: >10^6
[1]; 3 sheets, Day 0 at 25° C.
  microbes in treatment sheet laid on imitation vomit: <10
[1]; 3 sheets, Day 7 at 25° C.
  microbes in treatment sheet laid on imitation vomit: >10^6
[1]; 4 sheets, Day 0 at 25° C.
  microbes in treatment sheet laid on imitation vomit: <10
[1]; 4 sheets, Day 7 at 25° C.
  microbes in treatment sheet laid on imitation vomit: >10^6
[1]; 5 sheets, Day 0 at 25° C.
  microbes in treatment sheet laid on imitation vomit: <10
[1]; 5 sheets, Day 7 at 25° C.
  microbes in treatment sheet laid on imitation vomit: >10^6
[1]; 6 sheets, Day 0 at 25° C.
  microbes in treatment sheet laid on imitation vomit: <10
[1]; 6 sheets, Day 7 at 25° C.
  microbes in treatment sheet laid on imitation vomit: >10^6
[1]; 8 sheets, Day 0 at 25° C.
  microbes in treatment sheet laid on imitation vomit: <10
[1]; 8 sheets, Day 7 at 25° C.
  microbes in treatment sheet laid on imitation vomit: >10^6
[1]; 10 sheets, Day 0 at 25° C.
  microbes in treatment sheet laid on imitation vomit: <10
[1]; 10 sheets, Day 7 at 25° C.
  microbes in treatment sheet laid on imitation vomit: >10^6
[1]; 20 sheets, Day 0 at 25° C.
  microbes in treatment sheet laid on imitation vomit: <10
[1]; 20 sheets, Day 7 at 25° C.
  microbes in treatment sheet laid on imitation vomit: >10^6
[1]; 30 sheets, Day 0 at 25° C.
  microbes in treatment sheet laid on imitation vomit: <10
[1]; 30 sheets, Day 7 at 25° C.
  microbes in treatment sheet laid on imitation vomit: >10^6
[2]; 1 sheet, Day 0 at 25° C.
  microbes in treatment sheet laid on imitation vomit: <10
[2]; 1 sheet, Day 7 at 25° C.
  microbes in treatment sheet laid on imitation vomit: >10^6
[2]; 2 sheets, Day 0 at 25° C.
  microbes in treatment sheet laid on imitation vomit: <10
[2]; 2 sheets, Day 7 at 25° C.
  microbes in treatment sheet laid on imitation vomit: >10^6
[2]; 3 sheets, Day 0 at 25° C.
  microbes in treatment sheet laid on imitation vomit: <10
[2]; 3 sheets, Day 7 at 25° C.
  microbes in treatment sheet laid on imitation vomit: >10^6
[2]; 4 sheets, Day 0 at 25° C.
  microbes in treatment sheet laid on imitation vomit: <10
[2]; 4 sheets, Day 7 at 25° C.
  microbes in treatment sheet laid on imitation vomit: >10^6
[2]; 5 sheets, Day 0 at 25° C.
  microbes in treatment sheet laid on imitation vomit: <10
[2]; 5 sheets, Day 7 at 25° C.
  microbes in treatment sheet laid on imitation vomit: >10^6
[2]; 6 sheets, Day 0 at 25° C.
  microbes in treatment sheet laid on imitation vomit: <10
[2]; 6 sheets, Day 7 at 25° C.
  microbes in treatment sheet laid on imitation vomit: >10^6
[2]; 8 sheets, Day 0 at 25° C.
  microbes in treatment sheet laid on imitation vomit: <10
[2]; 8 sheets, Day 7 at 25° C.
  microbes in treatment sheet laid on imitation vomit: 1.1 × 10^4
[2]; 10 sheets, Day 0 at 25° C.
  microbes in treatment sheet laid on imitation vomit: <10
[2]; 10 sheets, Day 7 at 25° C.
  microbes in treatment sheet laid on imitation vomit: 7.1 × 10^2
[2]; 20 sheets, Day 0 at 25° C.
  microbes in treatment sheet laid on imitation vomit: <10
[2]; 20 sheets, Day 7 at 25° C.
  microbes in treatment sheet laid on imitation vomit: <10
[2]; 30 sheets, Day 0 at 25° C.
  microbes in treatment sheet laid on imitation vomit: <10
[2]; 30 sheets, Day 7 at 25° C.
  microbes in treatment sheet laid on imitation vomit: <10
[3]; Table 57, 0 h after spraying
  residual concentration of hydrogen sulfide, after correction (Control = 100): 0
  residual concentration of hydrogen sulfide, before correction: 0 ppm
[3]; Table 57, 3 h after spraying
  residual concentration of hydrogen sulfide, after correction (Control = 100): 0
  residual concentration of hydrogen sulfide, before correction: 0 ppm
[3]; Table 57, 6 h after spraying
  residual concentration of hydrogen sulfide, after correction (Control = 100): 0
  residual concentration of hydrogen sulfide, before correction: 0 ppm
[3]; Table 57, 9 h after spraying
  residual concentration of hydrogen sulfide, after correction (Control = 100): 0
  residual concentration of hydrogen sulfide, before correction: 0 ppm
[3]; Table 57, 24 h after spraying
  residual concentration of hydrogen sulfide, after correction (Control = 100): 0
  residual concentration of hydrogen sulfide, before correction: 0 ppm
[3]; Table 57, before spraying
  residual concentration of hydrogen sulfide, after correction (Control = 100): 100
  residual concentration of hydrogen sulfide, before correction: 40 ppm
[3]; Table 58, 0 h after spraying
  residual concentration of hydrogen sulfide, after correction (Control = 100): 0
  residual concentration of hydrogen sulfide, before correction: 0 ppm
[3]; Table 58, 3 h after spraying
  residual concentration of hydrogen sulfide, after correction (Control = 100): 0
  residual concentration of hydrogen sulfide, before correction: 0 ppm
[3]; Table 58, 6 h after spraying
  residual concentration of hydrogen sulfide, after correction (Control = 100): 0
  residual concentration of hydrogen sulfide, before correction: 0 ppm
[3]; Table 58, 9 h after spraying
  residual concentration of hydrogen sulfide, after correction (Control = 100): 0
  residual concentration of hydrogen sulfide, before correction: 0 ppm
[3]; Table 58, 24 h after spraying
  residual concentration of hydrogen sulfide, after correction (Control = 100): 0
  residual concentration of hydrogen sulfide, before correction: 0 ppm
[3]; Table 58, before spraying
  residual concentration of hydrogen sulfide, after correction (Control = 100): 100
  residual concentration of hydrogen sulfide, before correction: 50 ppm
